Counter-ions that a name gives are not always drawn.
Target: human plasma kallikrein (Homo sapiens, UniProt P03952)
Assay: biochemical
Conditions: purified human plasma kallikrein, substrate S-2302, sodium phosphate buffer pH 7.5

human plasma kallikrein, sequence (P03952 391-638 limits assumed): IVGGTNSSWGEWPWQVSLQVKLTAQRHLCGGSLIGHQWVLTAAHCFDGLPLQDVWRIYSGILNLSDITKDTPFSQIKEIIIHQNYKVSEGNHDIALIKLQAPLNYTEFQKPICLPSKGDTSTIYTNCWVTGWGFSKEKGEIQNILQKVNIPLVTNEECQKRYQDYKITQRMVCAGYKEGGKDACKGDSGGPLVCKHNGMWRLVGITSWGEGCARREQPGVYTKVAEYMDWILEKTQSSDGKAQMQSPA
human plasma kallikrein, sequence (P03952 20-390 partner limits assumed): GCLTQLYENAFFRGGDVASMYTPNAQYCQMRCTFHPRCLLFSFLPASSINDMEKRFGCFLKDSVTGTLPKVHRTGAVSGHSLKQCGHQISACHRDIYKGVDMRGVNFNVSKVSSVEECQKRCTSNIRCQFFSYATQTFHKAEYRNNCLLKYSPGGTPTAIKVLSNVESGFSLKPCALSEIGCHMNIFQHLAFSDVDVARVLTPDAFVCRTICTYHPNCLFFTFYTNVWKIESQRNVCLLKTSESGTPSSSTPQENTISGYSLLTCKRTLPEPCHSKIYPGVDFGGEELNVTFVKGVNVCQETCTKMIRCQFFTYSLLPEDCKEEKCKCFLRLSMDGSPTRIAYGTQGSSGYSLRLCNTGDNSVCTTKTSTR

| SMILES | Ki [nM] |
| --- | --- |
| C[C@@H]1CCC[C@H](n2cnc(-c3cc(Cl)ccc3-n3cc(C#N)nn3)cc2=O)c2cc(ccn2)-c2ccc(C#N)cc2NC1=O [Example 38, (10R,14S)-14-{4-[5-Chloro-2-(4-cyano-1H-1,2,3-triazol-1-yl)phenyl]-6-oxo-1,6-dihydropyrimidin-1-yl}-10-methyl-9-oxo-8,16-diazatricyclo[13.3.1.0^2,7]nonadeca-1(19),2(7),3,5,15,17-hexaene-5-carbonitrile trifluoroacetate] | 19 |
| C[C@@H]1CC(O)C[C@H](n2cnc(-c3c(-n4cc(Cl)nn4)ccc(Cl)c3F)cc2=O)c2cc(ccn2)-c2cc(F)ccc2NC1=O (stereo partly drawn) [Example 40, (10R,14S)-14-{4-[3-chloro-6-(4-chloro-1H-1,2,3-triazol-1-yl)-2-fluorophenyl]-6-oxo-1,6-dihydropyrimidin-1-yl}-4-fluoro-12-hydroxy-10-methyl-8,16-diazatricyclo[13.3.1.0^2,7]nonadeca-1(19),2(7),3,5,15,17-hexaen-9-one trifluoroacetate] | 13 |
| COC(=O)Nc1ccc2c(c1)NC(=O)[C@H](C)CCC[C@H](n1cnc(-c3cccc(Cl)c3F)cc1=O)c1cc-2ccn1 [Example 45, methyl N-[(10R,14S)-14-[4-(3-chloro-2-fluorophenyl)-6-oxo-1,6-dihydropyrimidin-1-yl]-10-methyl-9-oxo-8,16-diazatricyclo[13.3.1.0^2,7]nonadeca-1(18),2,4,6,15(19),16-hexaen-5-yl]carbamate trifluoroacetate] | 78 |
| COC(=O)Nc1ccc2c(c1)NC(=O)[C@H](C)CCC[C@H](n1cnc(-c3cc(Cl)ccc3F)cc1=O)c1cc-2ccn1 [Example 49, methyl N-[(10R,14S)-14-[4-(5-chloro-2-fluorophenyl)-6-oxo-1,6-dihydropyrimidin-1-yl]-10-methyl-9-oxo-8,16-diazatricyclo[13.3.1.0^2,7]nonadeca-1(19),2(7),3,5,15,17-hexaen-5-yl]carbamate trifluoroacetate] | 13 |
| C[C@@H]1CCC[C@H](n2cnc(-c3c(-n4ccnn4)ccc(Cl)c3F)cc2=O)c2cc(ccn2)-c2c(ccc(F)c2F)NC1=O [Example 54, (10R,14S)-14-{4-[3-chloro-2-fluoro-6-(1H-1,2,3-triazol-1-yl)phenyl]-6-oxo-1,6-dihydropyrimidin-1-yl}-3,4-difluoro-10-methyl-8,16-diazatricyclo[13.3.1.0^2,7]nonadeca-1(19),2(7),3,5,15,17-hexaen-9-one trifluoroacetate] | 41 |
| C[C@@H]1CCC[C@H](n2cnc(-c3c(-n4cc(Cl)nn4)ccc(Cl)c3F)cc2=O)c2cc(ccn2)-c2ccccc2NC1=O [Example 58, (10R,14S)-14-{4-[3-chloro-6-(4-chloro-1H-1,2,3-triazol-1-yl)-2-fluorophenyl]-6-oxo-1,6-dihydropyrimidin-1-yl}-10-methyl-8,16-diazatricyclo [13.3.1.0^2,7]nonadeca-1(19),2,4,6,15,17-hexaen-9-one] | 5 |
| C[C@@H]1CCC[C@H](n2cnc(-c3cc(Cl)ccc3-c3cnn(C)c3)cc2=O)c2cc(ccn2)-c2cc(F)ccc2NC1=O [Example 66, (10R,14S)-14-{4-[5-chloro-2-(1-methyl-1H-pyrazol-4-yl)phenyl]-6-oxo-1,6-dihydropyrimidin-1-yl}-4-fluoro-10-methyl-8,16-diazatricyclo[13.3.1.0^2,7]nonadeca-1(19),2(7),3,5,15,17-hexaen-9-one] | 900 |
| C[C@@H]1CCC[C@H](n2cnc(-c3cc(Cl)ccc3-n3cc(Cl)nn3)cc2=O)c2cc(ccn2)-c2ccc(C(F)F)cc2NC1=O [Example 74, (10R,14S)-14-{4-[5-chloro-2-(4-chloro-1H-1,2,3-triazol-1-yl)phenyl]-6-oxo-1,6-dihydropyrimidin-1-yl}-5-(difluoromethyl)-10-methyl-8,16-diazatricyclo [13.3.1.0^2,7]nonadeca-1(19),2(7),3,5,15,17-hexaen-9-one] | 40 |
| C[C@@H]1CCC[C@H](n2cnc(-c3cc(Cl)ccc3-n3cc(Cl)nn3)cc2=O)c2cc(ccn2)-c2ccc(Cl)cc2NC1=O [Example 75, (10R,14S)-5-chloro-14-{4-[5-chloro-2-(4-chloro-1H-1,2,3-triazol-1-yl)phenyl]-6-oxo-1,6-dihydropyrimidin-1-yl}-10-methyl-8,16-diazatricyclo [13.3.1.0^2,7]nonadeca-1(19),2(7),3,5,15,17-hexaen-9-one] | 100 |
| C[C@@H]1CCC[C@H](n2cnc(-c3cc(Cl)ccc3-n3cc(Cl)nn3)cc2=O)c2cc(ccn2)-c2ccc(C#N)cc2NC1=O [Example 89, (10R,14S)-14-{4-[5-chloro-2-(4-chloro-1H-1,2,3-triazol-1-yl)phenyl]-6-oxo-1,6-dihydropyrimidin-1-yl}-10-methyl-9-oxo-8,16-diazatricyclo[13.3.1.0^2,7]nonadeca-1(19),2(7),3,5,15,17-hexaene-5-carbonitrile trifluoroacetate] | 8 |
| C#Cc1ccc2c(c1)NC(=O)[C@H](C)CCC[C@H](n1cnc(-c3cc(Cl)ccc3-n3cc(Cl)nn3)cc1=O)c1cc-2ccn1 [Example 91, (10R,14S)-14-{4-[5-chloro-2-(4-chloro-1H-1,2,3-triazol-1-yl)phenyl]-6-oxo-1,6-dihydropyrimidin-1-yl}-5-ethynyl-10-methyl-8,16-diazatricyclo[13.3.1.0^2,7]nonadeca-1(19),2(7),3,5,15,17-hexaen-9-one] | 660 |
| C[C@@H]1CCC[C@H](n2cnc(-c3cc(Cl)ccc3-n3cc(C(F)F)nn3)cc2=O)c2cc(ccn2)-c2ccccc2NC1=O [Example 94, (10R,14S)-14-(4-{5-chloro-2-[4-(difluoromethyl)-1H-1,2,3-triazol-1-yl]phenyl}-6-oxo-1,6-dihydropyrimidin-1-yl)-10-methyl-8,16-diazatricyclo[13.3.1.0^2,7]nonadeca-1(19),2(7),3,5,15,17-hexaen-9-one] | 30 |
| C[C@@H]1CCC[C@H](n2cnc(-c3c(-n4cc(Cl)nn4)ccc(Cl)c3F)cc2=O)c2cc(ccn2)-c2cc(C#N)ccc2NC1=O [Example 98, (10R,14S)-14-{4-[3-Chloro-6-(4-chloro-1H-1,2,3-triazol-1-yl)-2-fluorophenyl]-6-oxo-1,6-dihydropyrimidin-1-yl}-10-methyl-9-oxo-8,16-diazatricyclo[13.3.1.0^2,7]nonadeca-1(19),2(7),3,5,15,17-hexaene-4-carbonitrile trifluoroacetate] | 40 |
| C[C@@H]1CCC[C@H](n2cnc(-c3cc(Cl)ccc3-n3cc(Cl)nn3)cc2=O)c2cc(ccn2)-c2ccc(OCC(=O)O)cc2NC1=O [Example 99, 2-{[(10R,14S)-14-{4-[5-chloro-2-(4-chloro-1H-1,2,3-triazol-1-yl)phenyl]-6-oxo-1,6-dihydropyrimidin-1-yl}-10-methyl-9-oxo-8,16-diazatricyclo[13.3.1.0^2,7]nonadeca-1(19),2(7),3,5,15,17-hexaen-5-yl]oxy}acetic acid] | 4900 |
| C[C@@H]1CCC[C@H](n2cnc(-c3cc(Cl)ccc3-n3cc(C(F)(F)F)nn3)cc2=O)c2cncc(c2)-c2cc(F)ccc2NC1=O [Example 103, (10R,14S)-14-(4-{5-chloro-2-[4-(trifluoromethyl)-1H-1,2,3-triazol-1-yl]phenyl}-6-oxo-1,6-dihydropyrimidin-1-yl)-4-fluoro-10-methyl-8,17-diazatricyclo[13.3.1.0^2,7]nonadeca-1(19),2(7),3,5,15,17-hexaen-9-one] | 32 |
